Experimental data taken from article PMC6112376, “Comprehensive Analyses and Prioritization of Tox21 10K Chemicals Affecting Mitochondrial Function by in-Depth Mechanistic Studies” (Environmental Health Perspectives, 2018).
Where two headings read alike, the source gives them in different places.

How the values were obtained:
HepG2 cells [1] = settings: cited from earlier work
HepG2 cells [2] = settings: for IC50: read-out: MMP assays IC50 (µM) HepG2
rat primary hepatocytes = experiment: MMP assay in rat primary hepatocytes; settings: for IC50: read-out: MMP assays IC50 (µM) Rat Hepatocytes
[3] = read-out: MMP assays IC50 (µM) qHTS-HepG2
[4] = read-out: MMP assays IC50 (µM), qHTS-HepG2
[5] = HepG2 cells, single number from one experiment
[6] = rat hepatocytes, mean ± SD of three experiments

| Compound | MMP assays efficacy (%) qHTS-HepG2 (HepG2 cells [1]) | IC50 (HepG2 cells [1]; [3]) [µM] | MMP assays IC50 (µM) HepG2 (HepG2 cells [2]) | MMP assays efficacy (%) HepG2 (HepG2 cells [2]) | IC50 (rat primary hepatocytes; Rattus norvegicus, Hepatocyte) [µM] | IC50 (HepG2 cells [1]; [4]) [µM] | MMP assays efficacy (%) HepG2 (HepG2 cells [2]; [5]) | IC50 (HepG2 cells [2]; [5]) [µM] | MMP assays IC50 (µM) Rat Hepatocytes (rat primary hepatocytes; [6]) | MMP assays efficacy (%) Rat Hepatocytes (rat primary hepatocytes; [6]) | IC50 (rat primary hepatocytes; [6]) [µM] | IC50 (HepG2 cells [2]) [µM] | IC50 (rat primary hepatocytes) [µM] | MMP assays IC50 (µM) qHTS-HepG2 (HepG2 cells [1]) | MMP assays IC50 (µM) HepG2 (HepG2 cells [2]; [5]) |
| --- | --- | --- | --- | --- | --- | --- | --- | --- | --- | --- | --- | --- | --- | --- | --- |
| CC(=O)O[C@@]12CO[C@@H]1C[C@H](O)[C@@]1(C)C(=O)[C@H](O)C3=C(C)[C@@H](OC(=O)[C@H](O)[C@@H](NC(=O)OC(C)(C)C)c4ccccc4)C[C@@](O)([C@@H](OC(=O)c4ccccc4)[C@H]21)C3(C)C [Docetaxel] | -57±17% | 15 ± 29.8 | inactive | inactive | 12.1 ± 4.78 |  |  |  |  |  |  |  |  |  |  |
| COC(=O)C1=C(C)NC(C)=C(C(=O)O[C@@H]2CCCN(Cc3ccccc3)C2)[C@@H]1c1cccc([N+](=O)[O-])c1.Cl (racemic) [rac Benidipine hydrochloride] | -93±18% |  |  |  |  | 15 ± 3.18 | -89% | 30.8 | inactive | inactive |  |  |  |  |  |
| CC(=O)OCCN(CCOC(C)=O)c1ccc(N=Nc2ccc([N+](=O)[O-])cc2C#N)cc1 [Disperse Red 82] | -87±5% | 8 ± 1.45 |  |  |  |  | -71% | 6.31 |  | -59±9% | 11.7 ± 8.76 |  |  |  |  |
| Diniconazole |  | 12.2 ± 3.53 |  |  |  |  |  |  |  |  |  | 8.91 | 36 ± 28.6 |  |  |
| COc1cc(Cl)ccc1Cl [2,5-Dichloroanisole] | inactive |  |  |  |  |  | inactive |  | inactive | inactive |  |  |  | inactive | inactive |
| CCN=C1C=CC(=C(c2ccc(N(CC)CC)cc2)c2ccc(N(CC)CC)cc2)c2ccccc21.Cl [Basic blue 7] | -87±17% | 0.02 ± 0.03 |  |  |  |  | -78% | 0.05 |  | -79±39% | 1.53 ± 1.42 |  |  |  |  |
| O=C(O)Cc1cc(I)c(Oc2cc(I)c(O)c(I)c2)c(I)c1 [3,3',5,5'-Tetraiodothyroacetic acid] | -87±2% | 45.8 ± 2.99 |  |  |  |  | -87% | 39 |  | -110±24% | 26.1 ± 2.13 |  |  |  |  |
| CCCOc1ccc2nc(NC(=O)OC)sc2c1 [Tioxidazole] | -70±6% |  |  |  |  | 7.5 ± 1.75 | -62% | 15.5 |  | -65±43% | 13 ± 1.06 |  |  |  |  |
| Oc1ccc(Cc2ccccc2O)cc1 [2-(4-Hydroxybenzyl)phenol] | -89±11% | 27.5 ± 1.92 |  |  |  |  | -87% | 35.5 | inactive | inactive |  |  |  |  |  |
| CC(=O)OCC(=O)[C@@]1(OC(C)=O)[C@@H](C)C[C@H]2[C@@H]3C[C@H](F)C4=CC(=O)C=C[C@]4(C)[C@@]3(F)[C@@H](O)C[C@@]21C [Diflorasone diacetate] | -50±7% | 28.7 ± 1.87 |  |  |  |  | inactive |  | inactive | inactive |  |  |  |  | inactive |
| O=C(OCC(COC(=O)c1ccccc1)(COC(=O)c1ccccc1)COC(=O)c1ccccc1)c1ccccc1 | -63±21% | 4.32 ± 8.63 |  |  |  |  | -52% | 7.08 | inactive | inactive |  |  |  |  |  |
| O=C=Nc1cccc(C(F)(F)F)c1 [1-Isocyanato-3-(trifluoromethyl)benzene] | -119±7% | 3.28 ± 1.13 |  |  |  |  | -108% | 6.31 |  | -107±13% | 11.5 ± 3.69 |  |  |  |  |
| CC[C@H](NC(=O)c1cc(F)ccc1[N-]S(=O)(=O)c1cccc2cccnc12)c1ccccc1.[Na+] | -101±14% |  |  |  |  | 4.42 ± 6.97 | -98% | 11.2 |  | -84±50% | 35.9 ± 20.2 |  |  |  |  |
| CCCC(c1cc(C(C)(C)C)c(O)cc1C)c1cc(C(C)(C)C)c(O)cc1C | -106±11% |  |  |  |  | 5.51 ± 1.58 | -100% | 7.08 |  | -61±15% | 21.1 ± 18.2 |  |  |  |  |
| OC1CCCCCCCCCCC1 [Cyclododecanol] | -66±13% | 48.8 ± 3.84 |  |  |  |  | inactive |  | inactive | inactive |  |  |  |  | inactive |
| O=C([O-])c1cc(=O)c2c3nc4ccccc4oc-3cc(=O)c2[nH]1.[Na+] [Pirenoxine sodium] | -54±10% |  |  |  |  | 21.1 ± 17.8 | inactive |  | inactive | inactive |  |  |  |  | inactive |

| Compound | MMP assays efficacy (%) qHTS-HepG2 (HepG2 cells [1]) | IC50 (HepG2 cells [1]; [3]) [µM] | MMP assays IC50 (µM) HepG2 (HepG2 cells [2]) | MMP assays efficacy (%) HepG2 (HepG2 cells [2]) | IC50 (rat primary hepatocytes; Rattus norvegicus, Hepatocyte) [µM] | IC50 (HepG2 cells [1]; [4]) [µM] | MMP assays efficacy (%) HepG2 (HepG2 cells [2]; [5]) | IC50 (HepG2 cells [2]; [5]) [µM] | MMP assays IC50 (µM) Rat Hepatocytes (rat primary hepatocytes; [6]) | MMP assays efficacy (%) Rat Hepatocytes (rat primary hepatocytes; [6]) | IC50 (rat primary hepatocytes; [6]) [µM] | IC50 (HepG2 cells [2]) [µM] | IC50 (rat primary hepatocytes) [µM] | MMP assays IC50 (µM) qHTS-HepG2 (HepG2 cells [1]) | MMP assays IC50 (µM) HepG2 (HepG2 cells [2]; [5]) |
| --- | --- | --- | --- | --- | --- | --- | --- | --- | --- | --- | --- | --- | --- | --- | --- |
| C(=Cc1ccncc1)c1ccccc1 [Compound 4-Styrylpyridine] | -65±10% | 11.2 ± 5.54 |  |  |  |  | inactive |  | inactive | inactive |  |  |  |  | inactive |
| N=C1NC(=N)c2cc3ccccc3cc21 [1,3-Diiminobenz(f)isoindoline] | -82±11% | 11.1 ± 7.81 |  |  |  |  | -95% | 35.5 |  | -68±18% | 26.7 ± 23.6 |  |  |  |  |
| CCC(=O)OCC(=O)[C@@]1(OC(=O)CC)[C@@H](C)C[C@H]2[C@@H]3CCC4=CC(=O)C=C[C@]4(C)[C@@]3(Cl)[C@@H](O)C[C@@]21C [Beclazone] | -103±9% | 23.7 ± 2.74 |  |  |  |  | -61% | 21.8 |  | -89±79% | 16.3 ± 20.6 |  |  |  |  |
| O=C(c1ccc(O)c(O)c1)c1ccc(O)cc1O [2,3',4,4'-Tetrahydroxybenzophenone] | -89±13% | 7.39 ± 7.14 |  |  |  |  |  | 8.91 |  | -69±32% | 40.4 ± 8.45 |  |  |  |  |
| Dodecylphenol |  | 3.1 ± 1.22 |  |  |  |  | -100% | 3.16 |  | -59±7% | 41.1 ± 13.2 |  |  |  |  |
| CCCCCCCCCCCC[n+]1ccc2ccccc2c1.Cc1ccc(S(=O)(=O)[O-])cc1 [2-Dodecylisoquinolinium tosylate] | -83±5% | 3.53 ± 0.5 |  |  |  |  | -110% | 4.35 |  | -95±7% | 4.94 ± 2.78 |  |  |  |  |
| CC(C)(C)OC(=O)c1ccc(O)cc1 [tert-Butyl 4-hydroxybenzoate] | -99±24% |  |  |  |  | 25.3 ± 7.32 | -105% | 35.5 |  | -80±10% | 50.8 ± 9.48 |  |  |  |  |
| CCCCCCCCCCCCCC[P+](CCCCCC)(CCCCCC)CCCCCC.[Cl-] [Trihexyltetradecylphosphonium chloride] | -113±11% |  |  |  |  | 0.77 ± 0.35 | -101% | 0.89 |  | -91±44% | 30.3 ± 8.97 |  |  |  |  |
| CCCCCCCCCCCCCC[P+](CCCCCC)(CCCCCC)CCCCCC.N#C[N-]C#N | -103±9% |  |  |  |  | 0.39 ± 0.19 | -94% | 0.89 |  | -81±9% | 31 ± 11.7 |  |  |  |  |
| Oc1ccc(Cl)cc1C1CCCC1 [Compound 4-Chloro-2-cyclopentylphenol] | -99±4% | 5.66 ± 1.93 |  |  |  |  | -99% | 6.31 |  | -85±8% | 33.6 ± 29.7 |  |  |  |  |
| CC/C=C\C/C=C\C/C=C\CCCCCCCC(=O)OCC [Ethyl linolenate] | -51±21% | 49.6 ± 36 |  |  |  |  | inactive |  | inactive | inactive |  |  |  |  | inactive |
| Nc1ccc2cc3ccc(N)cc3nc2c1.Nc1ccc2cc3ccc(N)cc3nc2c1.O=S(=O)(O)O [Proflavin hemisulfate] | -115±21% |  |  |  |  | 3.22 ± 0.82 | -95% | 3.46 |  | -94±11% | 11.6 ± 5.45 |  |  |  |  |
| C=CCc1cc(S(=O)(=O)c2ccc(O)c(CC=C)c2)ccc1O | -114±19% | 45 ± 17.9 |  |  |  |  | -107% | 15.8 |  | -52±23% | 24.5 ± 19.9 |  |  |  |  |
| O=C1c2ccccc2C(=O)C1c1ccc2ccccc2n1 [D&C Yellow 11] | -76±6% | 0.38 ± 0.13 |  |  |  |  | -75% | 0.44 | inactive | inactive |  |  |  |  |  |
| CC(=O)Nc1ccc(NC(=S)NC(=O)c2ccc(C(C)(C)C)cc2)cc1 [Tenovin-1] | -115±19% |  |  |  |  | 3.27 ± 2.74 | -114% | 3.88 |  | -41±18% | 18.4 ± 1.5 |  |  |  |  |
